Results: patent US8889840B2, “Vascular leakage inhibitor” (Industry-Academic Cooperation Foundation, Yonsei University, priority 2009, dated 2014)

How the values were obtained:
[1] = test system: HRECs; assay: Restoration of TJ instability and cytoskeleton change induced by VEGF in HRECs; type: cell-based, human; details: 20 ng/mL VEGF 1 hour, then 10 μg/mL 1 hour
Protocol: In FIGS. 9a-9b, confluent HRECs were stimulated with 20 ng/mL VEGF (1 hr) before treating with Sac0504 and Sac0601. The cells were then stained with anti-occludin antibody (FIG. 9a) and rhodamine phalloidin (FIG. 9b).
Confluent HRECs were treated with 20 ng/mL. VEGF for 1 hour and then with 10 μg/mL Sac0601 or Sac0504 for 1 hour. Subsequently, the cells were stained with anti-occludin antibody (FIG. 9a) or […] (FIG. 9b) as described above.

[2] = test system: HUVECs; assay: VEGF-induced actin stress fibers in HUVECs, rhodamine phalloidin staining; type: cell-based, human; details: 10 μg/mL pretreatment 1 hour, 20 ng/mL VEGF
Protocol: Confluent HUVECs were pretreated with the compounds (10 μg/mL) for 60 minutes before treating with 20 ng/mL VEGF (1 hr). The cells were then stained with rhodamine phalloidin.
It is known that the change in the actin structure of the cytoskeleton is closely related with the permeability of vascular endothelial cells. Increased permeability of vascular endothelial cells leads to increased formation of actin stress fibers and decrease of cortical actin ring structures. Based on this, the ability of inhibiting vascular endothelial permeability of the synthesized Rk1 derivatives was screened. Confluent HUVECs were pretreated with the synthesized compounds (10 μg/mL) for 1 hour before treating with 20 ng/mL VEGF (Upstate Biotechnology). Subsequently, the cells were fixed with 4% paraformaldehyde for 20 minutes at room temperature and washed 3 times with PBS (pH 7.4). Then, the cells were permeabilized with 0.1% Triton X-100/PBS and reacted with 0.1 mg/mL rhodamine phalloidin (Molecular Probes) for 1 hour. Then, the cells were observed under a fluorescence microscope (Olympus).

[3] = test system: human retinal endothelial cells (HRECs); assay: Serum depletion-induced apoptosis of HRECs, MTT assay and cell morphology; type: cell-based; details: serum-free medium, 0.1-10 μg/mL
Protocol: HRECs (3×10^4 cells/well) were seeded on a 24-well plate in M199 medium containing 20% fetal bovine serum. The next day, the cells were transferred to a medium containing […] Sac0601 (FIG. 4a) or 0.1-10 μg/mL Sac0504 (FIG. 4b). Cell viability was determined by MTT assay 48 hours later. FIGS. 5a-5c show the result of observing cell morphologies.
Human umbilical vein endothelial cells (HUVECs) and human retinal endothelial cells (HRECs) purchased from Cell Systems (USA) were seeded on a 100-mm culture dish in M199 medium (Life Technologies, USA) containing 20% (w/v) fetal bovine serum (FBS, HyClone, Canada), 100 units/mL penicillin (Invitrogen, USA), 100 μg/mL streptomycin (invitrogen, USA), 3 ng/mL basic fibroblast growth factor (bFGF, Upstate Biotechnology, USA) and 5 units/mL heparin and cultured in a 5% CO2 incubator at 37° C.
Also, HRECs were treated with the compounds synthesized in Synthesis Example 5 and MIT assay was performed 48 hours later in the same manner as described above.
Also, the acid compound wherein the methyl ester formed by the introduction of the ester group was hydrolyzed was synthesized to provide improved water solubility and activity. MYT assay was performed for the compounds synthesized in Synthesis Example 6 in the same manner as described above 48 hours after treatment.
Their ability of inhibiting apoptosis was confirmed again for HRECs. HRECs (3×10^4 cells/well) were seeded on a 24-well plate in M199 medium (1 mL) containing 20% fetal bovine serum, Next day, the cells were transferred to serum-free M199 medium containing 0.1-10 μg/ml. Sac060.1 (FIG. 4a) or 0.1-10 μg; mL Sac0504 (FIG. 4b). Cell viability was determined by MTF assay in the same manner as in Test Example 1.
Their ability of inhibiting apoptosis was confirmed again for HRECs.

[4] = test system: HRECs; assay: VEGF-induced actin stress fibers in HRECs, rhodamine phalloidin staining; type: cell-based, human; details: 10 μg/mL 1 hour, then 20 ng/mL VEGF 1 hour
Protocol: Confluent HRECs were treated with 10 μg/mL Sac0601 or Sac0504 for 1 hour and then with 20 ng/mL VEGF for 1 hour. Subsequently, the cells were fixed at room temperature for 20 minutes with 4% paraformaldehyde and washed 3 times with PBS (pH 7.4). Then, the cells were permeabilized with 0.1% Triton X-100/PBS and reacted with 0.1 mg/mL rhodamine phalloidin (Molecular Probes) for 1 hour. Then, the cells were observed under a fluorescence microscope (Olympus). […] The analysis of actin cytoskeleton was conducted also for the compounds synthesized in Synthesis Example 5. Both Sac0904 and Sac0902 exerted effects in a concentration-dependent manner on the actin cytoskeleton which is closely related with vascular permeability (FIG. 7c).

[5] = test system: HRECs; assay: Stability of tight junctions (TJs) at cell-cell contacts in VEGF-treated HRECs, anti-occludin immunostaining; type: cell-based, human; details: 10 μg/mL 1 hour, then 20 ng/mL VEGF 1 hour
Protocol: In FIG. 8a, confluent HRECs were pretreated with Sac0601 (panel A in FIG. 8a) or Sac0504 (panel B in FIG. 8a) for 60 minutes before treating with 20 ng/ml. VEGF (1 hr). The cells were then stained with occludin antibody.
Confluent HRECs were treated with 10 μg/mL Sac0601 (FIG. 8a, panel A) or Sac0504 (FIG. 8a, panel B) for 1 hour and then with 20 ng/mL. VEGF for 1 hour. Subsequently, the cells were fixed at room temperature for 20 minutes with 4% paraformaldehyde and permeabilized with 0:1% Triton X-100/PBS. Then, the cells were incubated in PBS blocking solution containing 5% normal goat serum and 0.05% Tween-20. The cells were then reacted with anti-occludin antibody (Zymed Laboratories Inc.). The result was visualized with fluorescein-conjugated anti-mouse antibody (Vector Lab.). Also, western blotting was conducted for the cell lysate. The cell lysate was fractionated with SDS-PAGE and then transferred to polyvinyl difluoride membrane. The blocked membrane was reacted with anti-occludin antibody (Zymed Laboratories Inc.) and the immune response band was visualized with the chemiluminescence reagent obtained from Amersham Biosciences, Inc.

SMILES | change in actin structure and TJ stability at the cell-cell contacts induced by VEGF [1] | cortical actin ring structure [2] | formation of actin stress fibers induced by VEGF [2] | ability of protecting retinal vascular endothelial cells from apoptosis induced by the removal of serum (MTT) [3] | formation of actin stress fibers induced by VEGF [4] | formation of cortical actin ring structures [4] | redistribution of TJs into the cytoplasm or destabilizing at the cell membrane induced by VEGF [5] | stability of TJs between cells [5]
CC(C)CCC[C@@H](C)[C@H]1CC[C@H]2[C@@H]3CC=C4C[C@@H](OC5CCCCO5)CC[C@]4(C)[C@H]3CC[C@]12C (stereo partly shown) [Sac0504] | can be restored | increased the cortical actin ring structure | inhibited the formation of actin stress fibers induced by VEGF | have the ability of protecting the retinal vascular endothelial cells from apoptosis | inhibited the formation of actin stress fibers induced by VEGF | increased the formation of cortical actin ring structures | could be inhibited | enhanced
CC(=O)OCC1OC(OC2CCC3(C)C(=CCC4C3CCC3(C)C(C(C)CCCC(C)C)CCC43)C2)C=CC1OC(C)=O (stereo not shown) [Sac0601] | can be restored | increased the cortical actin ring structure | inhibited the formation of actin stress fibers induced by VEGF | have the ability of protecting the retinal vascular endothelial cells from apoptosis | inhibited the formation of actin stress fibers induced by VEGF | increased the formation of cortical actin ring structures | could be inhibited | more effective in enhancing the stability of TJs than Sac0504
